Patent US12492410B2, “Engineered cytolytic immunecell” (Autolus Limited, priority 2018, dated 2025)

How the values were obtained:
[1] = system: minocycline dAb (SEQ ID NO: 8); assay: Phage-peptide screening for minocycline-displaceable binding to minocycline dAb; conditions: for displaceable specificity for minocycline dAb: minocycline dAb-Fc immobilised on beads, with and without 1 μM minocycline, control antibody SEQ ID NO: 13; for affinity of peptide for minocycline dAb: stated in words
Protocol: FIG. 4—Graphs showing minocycline displaceable binding of peptides SEQ ID NO: 34, SEQ ID NO: 35, SEQ ID NO: 36 and SEQ ID NO: 37 to minocycline dAb (SEQ ID NO: 8) versus control antibody (SEQ ID NO: 13).
A minocycline dAb-Fc was immobilised on beads. The minocycline dAb was encoded by SEQ ID NO: 8. Phage-peptide colony screening was performed with and without 1 μM minocycline.
An antibody comprising SEQ ID NO: 13 was used as a control antibody (the control antibody comprises different CDRs to SEQ ID NO: 8).

HEK293T cells = assay: Minocycline induced secretion of ER retained IL12, IL12 ELISA of supernatant; type: cell-based; conditions: IL12 fused to the peptide, in the presence of KDEL anchored minocycline dAb; minocycline 0 μM; all time points (2 and 4 hours)
Protocol: FIGS. 5A, 5B and 5C—Minocycline induced secretion of ER retained IL12 HEK293T cells were transiently transfected with constructs expressing the intracellular KDEL tagged anti-minocycline dAb and dAb-specific peptide (GWARA or PWAYS) tagged IL-12 (A). Transfection efficiency determined by staining for HA marker expression with transfection efficiency ranging from 50-70% (B). […] Supernatant was collected 2 and 4 hours post minocycline addition and IL12 ELISA readout carried out (C).
The KDEL amino acid sequence was used to retain proteins within the ER/Golgi apparatus. The minocycline specific dAb was tagged with the KDEL sequence (SEQ ID NO: 29) thus anchoring it within with the ER/Golgi and a molecule of interest (IL12) is in turn tagged with the peptide with affinity to the dAb causing its retention. Upon addition of minocycline, the dAb-peptide complex dissociates enabling secretion of the peptide-tagged molecule.
HEK293T cells were seeded at […] in 96-well plates to achieve confluency of 50-60% for next day transfection. A transfection master mix was made by adding 30 μL of GeneJuice transfection reagent to 470 μL plain IMDM and incubating for 5 minutes. For each well, 0.13 μg of plasmid DNA was then added to 5.2 uL of the IMDM-Genejuice master mix and incubated for 15 minutes. Transfection mix containing the GeneJuice-DNA complex was then added to the cells. […]

Sequence of minocycline dAb (SEQ ID NO: 8) (as listed by the source): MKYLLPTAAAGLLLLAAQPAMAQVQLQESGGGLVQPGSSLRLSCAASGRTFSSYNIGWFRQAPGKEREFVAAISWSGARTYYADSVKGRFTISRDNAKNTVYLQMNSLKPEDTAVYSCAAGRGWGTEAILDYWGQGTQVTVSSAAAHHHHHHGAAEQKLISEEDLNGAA

Row | Sequence | displaceable specificity for minocycline dAb [1] | affinity of peptide for minocycline dAb [1] | IL12 secretion (HEK293T cells)
1 | ACPGWARAFC (minocycline peptide mimic) [SEQ ID NO: 34] | displaceable specificity | high affinity | concentration dependent increase
2 | ACPHWAQAFC (minocycline peptide mimic) [SEQ ID NO: 35] | displaceable specificity |  | 
3 | ACPPWAYSFC (minocycline peptide mimic) [SEQ ID NO: 37] | displaceable specificity | low affinity | concentration dependent increase
4 | ACPQWAMMFC (minocycline peptide mimic) [SEQ ID NO: 36] | displaceable specificity |  | 
